Test results as given in patent US6218102A, “Synthetic peptides and mixtures thereof for detecting HIV antibodies” (priority 1988, dated 2001).
Where two headings read alike, the source gives them in different places. Peptide text beside a SMILES is read from it.

How the values were obtained:
[1] = tested on: antibodies of patients infected by the AIDS viruses; details: cited from earlier work
Antibodies to HIV-1 [2] = assay: ELISA with peptide or peptide mixture as antigen, identifying HIV-1 positive sera; format: binding, human; details: single peptide, known HIV-1 positive sera, Table 3
Procedure: According to this test a peptide or a peptide mixture of the present invention is adsorbed onto the wells of a microtiter plate. The wells are then treated with sera to be tested. After washing, anti-human IgG labeled with peroxidase is added to the wells. The determination of the peroxidase is performed with a corresponding substrate, e.g. with o-phenylene diamine. Also in this procedure the peroxidase can be exchanged by another label, e.g. by a radioactive or fluorescence label.
(§1) Each well of the microtiter plate is saturated with 100 μl of a solution containing a peptide or mixture of peptides (5 μg/ml) and left overnight. The wells are emptied and washed twice with a washing buffer (Tris, 0.043M; NaCl, 0.5M; thimerosal, 0.01% w/v; Tween 20, 0.05% v/v; pH7.4). The wells are then saturated with 0.35 ml of washing buffer for 1 hr. at 37° C. and washed once with the same buffer. Serum samples to be analyzed are diluted with specimen buffer (washing buffer plus casein, 0.05% w/v). The wells are rinsed with washing buffer prior to the addition of the diluted serum sample (0.1 ml). These are left to incubate for 1 hr. at room temperature. The wells are then emptied, washed twice rapidly and then once for two minutes with washing buffer. […] The wells are then emptied and washed twice rapidly with washing buffer and then five times in which the buffer was in contact with the well 2 minutes per washing. The substrate solution (3,3', 5,5'-tetramethylbenzidine, 8 mg per ml of DMSO) is diluted with 100 volumes 0.1M citrate-acetate buffer, pH 5.6 containing 0.1% v/v of 30% H2 O2 and added to each well (0.1 ml per well). After 10 minutes the contents of each well is treated with 0.1 ml 2N H2 SO4 and the optical density read at 450 nm. All determinations are done in duplicate.

Antibodies to HIV-1 [3] = assay: ELISA, relative performance of cyclic and non-cyclic HIV-1 peptides at serum dilutions (optical density); format: binding, human
Procedure: Table 4 is provided to illustrate the sensitivity of cyclic versus non cyclic peptides in the ELISA test by comparing the results of some sera at various dilutions.
as §1

For SGKLIC, the “immunoreactivity with HIV-1 positive sera” value ([1]; Gnann et al., 22 HIV-1 positive sera) is listed as “not immunoreactive with any of the 22 HIV-1 positive sera tested”.

For “SGKLICTTAVPWNAS [short synthetic peptide covering residues 606 to 620 of gp 41 (HIV-1), Ser. No. 120,027]”, the specificity ([1]; U.S. Ser. No. 120,027, seronegative specimens correctly identified) is given as 63/63 and the sensitivity ([1]; U.S. Ser. No. 120,027, six of 57 confirmed positive not detected) is given as 89%.

For “12-amino acid sequence (600-611): 12-amino acid sequence 600-611 from gp 41 (HIV-1), Gnann et al.”, the positive sera detected ([1]; Center for Disease Control, Atlanta) is listed as 78 out of 79, the positive sera detected ([1]; Gnann et al., Journal of Virology 1987) is listed as 22 out of 22 and the HIV-1-infected patients reactive ([1]; J. Infect. Dis. 156, 1987, patients from the United States) is listed as 131 out of 132.

For `CC[C@H](C)[C@H](NC(=O)CNC(=O)[C@H](CC(C)C)NC(=O)[C@H](CC(C)C)NC(=O)[C@H](CCC(N)=O)NC(=O)[C@H](CCC(N)=O)NC(=O)[C@H](CC(=O)O)NC(=O)[C@H](CCCCN)NC(=O)[C@H](CC(C)C)NC(=O)[C@H](Cc1ccc(O)cc1)NC(=O)[C@H](CCCNC(=N)N)NC(=O)[C@H](CCC(=O)O)NC(=O)[C@@H](NC(=O)[C@H](C)NC(=O)[C@H](CC(C)C)NC(=O)[C@@H](NC(=O)[C@@H](N)CCCNC(=N)N)[C@@H](C)CC)C(C)C)C(=O)N[C@@H](Cc1c[nH]c2ccccc12)C(=O)NCC(=O)N[C@H]1CSSC[C@@H](C(=O)N[C@H](C(=O)N[C@H](C(=O)N[C@@H](C)C(=O)N[C@H](C(=O)N2CCC[C@H]2C(=O)N[C@@H](Cc2c[nH]c3ccccc23)C(=O)N[C@@H](CC(N)=O)C(=O)N[C@@H](C)C(=O)N[C@@H](CO)C(=O)O)C(C)C)[C@@H](C)O)[C@@H](C)O)NC(=O)[C@H]([C@@H](C)CC)NC(=O)[C@H](CC(C)C)NC(=O)[C@H](CCCCN)NC(=O)CNC(=O)[C@H](CO)NC1=O` [Peptide 87c] (HELM PEPTIDE1{R.I.L.A.V.E.R.Y.L.K.D.Q.Q.L.L.G.I.W.G.C.S.G.K.L.I.C.T.T.A.V.P.W.N.A.S}$PEPTIDE1,PEPTIDE1,20:R3-26:R3$$$V2.0), the “% Positive Sera Correctly Identified” value (Antibodies to HIV-1 [2]) was 99%, the ELISA optical density (Antibodies to HIV-1 [3]; serum specimen 87V103, dilution 1/50) was 0.011 OPTICAL DENSITY UNITS and the ELISA optical density (Antibodies to HIV-1 [3]; serum specimen 1428, dilution 1/50) was over 2.0 OPTICAL DENSITY UNITS. It also gave an ELISA optical density (Antibodies to HIV-1 [3]; serum specimen M-5, dilution 1/50) of over 2.0 OPTICAL DENSITY UNITS, an ELISA optical density (Antibodies to HIV-1 [3]; serum specimen M-5, dilution 1/100) of over 2.0 OPTICAL DENSITY UNITS and an ELISA optical density (Antibodies to HIV-1 [3]; serum specimen M-5, dilution 1/200) of over 2.0 OPTICAL DENSITY UNITS. It also gave an ELISA optical density (Antibodies to HIV-1 [3]; serum specimen M-5, dilution 1/400) of over 2.0 OPTICAL DENSITY UNITS, an ELISA optical density (Antibodies to HIV-1 [3]; serum specimen M-5, dilution 1/800) of 1.854 OPTICAL DENSITY UNITS and an ELISA optical density (Antibodies to HIV-1 [3]; serum specimen M-7, dilution 1/50) of over 2.0 OPTICAL DENSITY UNITS. It also gave an ELISA optical density (Antibodies to HIV-1 [3]; serum specimen M-7, dilution 1/100) of over 2.0 OPTICAL DENSITY UNITS, an ELISA optical density (Antibodies to HIV-1 [3]; serum specimen M-7, dilution 1/200) of 1.729 OPTICAL DENSITY UNITS and an ELISA optical density (Antibodies to HIV-1 [3]; serum specimen M-7, dilution 1/400) of 1.348 OPTICAL DENSITY UNITS. The ELISA optical density (Antibodies to HIV-1 [3]; serum specimen M-7, dilution 1/800) was 0.611 OPTICAL DENSITY UNITS, the ELISA optical density (Antibodies to HIV-1 [3]; serum specimen M-8, dilution 1/50) was over 2.0 OPTICAL DENSITY UNITS and the ELISA optical density (Antibodies to HIV-1 [3]; serum specimen M-8, dilution 1/100) was over 2.0 OPTICAL DENSITY UNITS. It also gave an ELISA optical density (Antibodies to HIV-1 [3]; serum specimen M-8, dilution 1/200) of 1.655 OPTICAL DENSITY UNITS, an ELISA optical density (Antibodies to HIV-1 [3]; serum specimen M-8, dilution 1/400) of 1.064 OPTICAL DENSITY UNITS and an ELISA optical density (Antibodies to HIV-1 [3]; serum specimen M-8, dilution 1/800) of 0.384 OPTICAL DENSITY UNITS. It also gave an ELISA optical density (Antibodies to HIV-1 [3]; serum specimen M-16, dilution 1/50) of over 2.0 OPTICAL DENSITY UNITS, an ELISA optical density (Antibodies to HIV-1 [3]; serum specimen M-16, dilution 1/100) of over 2.0 OPTICAL DENSITY UNITS and an ELISA optical density (Antibodies to HIV-1 [3]; serum specimen M-16, dilution 1/200) of over 2.0 OPTICAL DENSITY UNITS. The ELISA optical density (Antibodies to HIV-1 [3]; serum specimen M-16, dilution 1/400) was over 2.0 OPTICAL DENSITY UNITS and the ELISA optical density (Antibodies to HIV-1 [3]; serum specimen M-16, dilution 1/800) was 1.962 OPTICAL DENSITY UNITS.
